According to patent US11530186B2, “Inhibitors for the β-catenin / T-cell factor protein-protein interaction” (H. LEE MOFFITT CANCER CENTER AND RESEARCH INSTITUTE, INC., priority 2018, dated 2022):
Like-named read-outs stand apart in the source and are kept apart here.

Target: T1, β-catenin/Tcf protein-protein interaction (Homo sapiens, UniProt P35222)
T1 construct: Wild-type β-catenin (residues 138-781) were cloned into a pET-28b vector; 6×histidine (C); made in house; host or cells: E. coli BL21 DE3
T1 sequence (P35222 138-781): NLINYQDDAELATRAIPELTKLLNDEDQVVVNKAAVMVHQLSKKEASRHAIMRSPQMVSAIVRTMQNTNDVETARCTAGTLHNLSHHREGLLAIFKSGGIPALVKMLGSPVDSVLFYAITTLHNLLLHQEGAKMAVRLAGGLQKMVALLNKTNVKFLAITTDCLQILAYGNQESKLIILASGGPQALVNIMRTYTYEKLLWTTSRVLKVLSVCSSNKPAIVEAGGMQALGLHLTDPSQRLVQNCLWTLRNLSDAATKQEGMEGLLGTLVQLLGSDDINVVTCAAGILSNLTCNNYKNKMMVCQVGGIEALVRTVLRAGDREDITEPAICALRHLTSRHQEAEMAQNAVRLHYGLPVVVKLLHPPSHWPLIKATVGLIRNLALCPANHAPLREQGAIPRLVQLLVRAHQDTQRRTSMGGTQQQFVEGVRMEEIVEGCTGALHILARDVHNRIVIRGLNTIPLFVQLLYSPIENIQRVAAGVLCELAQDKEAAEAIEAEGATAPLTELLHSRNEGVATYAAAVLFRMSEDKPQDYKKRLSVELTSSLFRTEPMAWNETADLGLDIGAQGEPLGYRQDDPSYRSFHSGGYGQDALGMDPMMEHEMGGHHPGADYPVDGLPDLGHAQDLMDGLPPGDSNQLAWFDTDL
Assay: FP competitive inhibition assay
Assay type: binding
Experimental: Protein Expression and Purification. Wild-type β-catenin (residues 138-781) were cloned into a pET-28b vector carrying a C-terminal 6×histidine (Novagen) and transformed into E. coli BL21 DE3 (Novagen). Cells were cultured in LB medium with 30 μg/mL kanamycin until the OD600 was approximately 0.8, and then protein expression was induced with 400 μM of IPTG at 20° C. overnight. Cells were lysed by sonication. The proteins were purified by Ni-NTA affinity chromatography (30210, Qiagen) and dialyzed against a buffer containing 20 mM of Tris (pH 8.8), 100 mM NaCl, 10% glycerol, and 3 mM DTT. The purity of β-catenin was set to >95% as determined by SDS-PAGE gel analysis. Native non-denaturing gel electrophoresis experiment and the thermal-shift assay on an iCycler iQ Real Time Detection System (Bio-Rad) were performed for each purified protein. In the thermal shift assay, protein unfolding was evaluated through measuring the fluorescence changes of fluorescent dye Sypro Orange with purified β-catenin proteins. A temperature increment of 1° C./min was applied to monitor protein stability and detect protein aggregation. CD spectra were measured on a J-815 spectropolarimeter (Jasco). All spectra were recorded using a 1 mm path-length quartz cell. The CD spectra were averaged over three scans, and the wavelength was scanned from 260 to 190 nm in step of 1 nm. All spectra were recorded at room temperature, and the baseline was corrected by subtracting the CD spectra of a blank control containing all of the substances except protein. Samples were prepared at a concentration around 1-5 μM in a buffer of 10 mM potassium phosphate and 100 mM potassium fluoride at pH 7.0 to ensure that the transmission of light through the sample was not restricted. All proteins were stable, and no aggregation was observed under storage or assay conditions. Proteins were aliquoted and stored at −80° C. C-terminally fluorescein-labeled human Tcf4 (residues 7-51) was synthesized and HPLC purified with purity >95%. The structures were validated by LC/MS (liquid chromatography/mass spectrometry).
FP Assays. The procedures for the FP competitive inhibition assays have been described previously (Zhang, M.; Huang, Z.; Yu, B.; Ji, H. New homogeneous high-throughput assays for inhibitors of β-catenin/Tcf protein-protein interactions Anal. Biochem. 2012, 424, 57-63; Zhang, M.; Catrow, J. L.; Ji, H. High-throughput selectivity assays for small-molecule inhibitors of β-catenin/T-cell factor protein-protein interactions. ACS Med. Chem. Lett. 2013, 4, 306-311). Briefly, all of the tested compounds were prepared as 10 mM DMSO stocks. In the primary screen, the concentrations of the compounds and DMSO were set to 50 μM and 1% (v/v). Only the compounds which FP signal decreases were greater than 50% in the single-point β-catenin/Tcf assay were evaluated by counter screen. […] In the FP competitive inhibition assay, 10 nM human β-catenin and 2.5 nM of C-terminally fluorescein-labeled human Tcf4 were incubated in an assay buffer of 137 mM NaCl, 2.7 mM KCl, 10 mM Na2HPO4, 2 mM KH2PO4, 100 μg/mL of bovine γ-globulin, and 0.01% Triton-X100 for 15 min at 4° C. Bovine γ-globulin and Triton-X100 were included in the assay buffer to decrease the likelihood of compound acting by aggregate formation. Different concentrations of the tested compounds in the assay buffer were added to each test plate to make a final volume of 100 μL. Each assay plate was covered black and gently mixed on an orbital shaker at 4° C. for 1.5 h to reach equilibrium before the polarization values were read. The IC50 value was determined by nonlinear least-square analysis of GraphPad Prism 5.0. The Ki values were derived (Nikolovska-Coleska, Z.; Wang, R.; Fang, X.; Pan, H.; Tomita, Y.; Li, P.; Roller, P. P.; Krajewski, K.; Saito, N. G.; Stuckey, J. A.; Wang, S. Development and optimization of a binding assay for the XIAP BIR3 domain using fluorescence polarization. Anal. Biochem. 2004, 332, 261-273). […]

[1] = Assay 1, mean ± SD (n = 3), read-out: Ki ± SD, Assay 1
[2] = Assay 2, mean ± SD (n = 3), read-out: Ki ± SD, Assay 2
[3] = Assay 3, mean ± SD (n = 3), read-out: Ki ± SD, Assay 3

SMILES | Ki [1] [µM] | Ki [2] [µM] | Ki [3] [µM] | Ki (Assay 4, mean ± SD (n = 3), read-out: Ki ± SD, Assay 4) [µM]
COc1ccc2sc(CCc3c(CCc4ccc(Cl)cc4)c4cc(C(=O)NCC(O)CO)ccc4n3CCc3nn[nH]n3)nc2c1 (stereo not shown) [Compound 66, 1-(2-(2H-tetrazol-5-yl)ethyl)-3-(4-chlorophenethyl)-N-(2,3-dihydroxypropyl)-2-(2-(5-methoxybenzo[d]thiazol-2-yl)ethyl)-1H-indole-5-carboxamide] | 3.7 ± 0.19 | 32 ± 3.8 | – | –
O=C(O)CCn1cc(CCc2ccc(Cl)cc2)c2cc(C(=O)O)ccc21 [Compound 23, 1-(2-carboxyethyl)-3-(4-chlorophenethyl)-1H-indole-5-carboxylic acid] | 94 ± 9.6 | – | – | –
Cc1ccc(CCc2c(CCc3nc4ccccc4[nH]3)n(CCC(=O)O)c3ccc(C(=O)O)cc23)cc1 [Compound 42, 2-(2-(1H-benzo[d]imidazol-2-yl)ethyl)-1-(2-carboxyethyl)-3-(4-methylphenethyl)-1H-indole-5-carboxylic acid] | 29 ± 3.3 | 2 ± 1.2 | – | –
O=C(O)c1ccc2c(c1)c(CCC1CCOCC1)cn2CCc1nn[nH]n1 [Compound 21, 1-(2-(2H-tetrazol-5-yl)ethyl)-3-(2-(tetrahydro-2H-pyran-4-yl)ethyl)-1H-indole-5-carboxylic acid] | 6.6 ± 0.28 | 7.6 ± 0.65 | 10 ± 0.95 | 5.7 ± 1.1
COCCOc1ccc2sc(CCc3c(CCc4ccc(Cl)cc4)c4cc(C(=O)O)ccc4n3CCc3nn[nH]n3)nc2c1 [Compound 32, 1-(2-(2H-tetrazol-5-yl)ethyl)-3-(4-chlorophenethyl)-2-(2-(5-(2-methoxyethoxy)benzo [d]thiazol-2-yl)ethyl)-1H-indole-5-carboxylic acid] | 6.1 ± 1.5 | 7.5 ± 1.9 | 3.7 ± 1.3 | –
O=C(O)c1ccc2c(c1)c(CCc1ccc(Cl)cc1)c(CCc1nc3cc(Cl)ccc3s1)n2CCc1nn[nH]n1 [Compound 30, 1-(2-(2H-tetrazol-5-yl)ethyl)-2-(2-(5-chlorobenzo[d]thiazol-2-yl)ethyl)-3-(4-chlorophenethyl)-1H-indole-5-carboxylic acid] | 1.1 ± 0.27 | 1.6 ± 0.63 | 2.5 ± 1.5 | –
COc1ccc2sc(CCc3c(CCc4ccc(Cl)cc4)c4cc(C(=O)NCC5CCOC5)ccc4n3CCc3nn[nH]n3)nc2c1 (stereo not shown) [Compound 65, 1-(2-(2H-tetrazol-5-yl)ethyl)-3-(4-chlorophenethyl)-2-(2-(5-methoxybenzo[d]thiazol-2-yl)ethyl)-N-((tetrahydrofuran-3-yl)methyl)-1H-indole-5-carboxamide] | 6.1 ± 0.76 | – | – | –
Cc1ccc(CCc2c(CCc3nc4ccccc4s3)n(CCc3nn[nH]n3)c3ccc(C(=O)O)cc23)cc1 [Compound 28, 1-(2-(2H-tetrazol-5-yl)ethyl)-2-(2-(benzo[d]thiazol-2-yl)ethyl)-3-(4-methylphenethyl)-1H-indole-5-carboxylic acid] | 2.3 ± 0.54 | 0.87 ± 0.33 | – | –
COc1ccc2sc(CCc3c(CCc4ccc(Cl)cc4)c4cc(C(=O)N[C@H]5CC[C@@H](N)CC5)ccc4n3CCc3nn[nH]n3)nc2c1 [Compound 68, (1s,4s)-4-(1-(2-(2H-tetrazol-5-yl)ethyl)-3-(4-chlorophenethyl)-2-(2-(5-methoxybenzo[d]thiazol-2-yl)ethyl)-1H-indole-5-carboxamido)cyclohexan-1-aminium] | > 24 | > 22 | – | –
COc1ccc2sc(CCc3c(CCc4ccc(Cl)cc4)c4cc(C(=O)NCc5ccccc5Cl)ccc4n3CCc3nn[nH]n3)nc2c1 [Compound 51, 1-(2-(2H-tetrazol-5-yl)ethyl)-N-(2-chlorobenzyl)-3-(4-chlorophenethyl)-2-(2-(5-methoxybenzo[d]thiazol-2-yl)ethyl)-1H-indole-5-carboxamide] | 3.6 ± 0.6 | 4.8 ± 0.84 | – | –
COc1ccc2sc(CCc3c(CCc4ccc(Cl)cc4)c4cc(C(=O)N[C@H]5CC[C@H](N)CC5)ccc4n3CCc3nn[nH]n3)nc2c1 [Compound 69, (1r,4r)-4-(1-(2-(2H-tetrazol-5-yl)ethyl)-3-(4-chlorophenethyl)-2-(2-(5-methoxybenzo[d]thiazol-2-yl)ethyl)-1H-indole-5-carboxamido)cyclohexan-1-aminium] | > 24 | > 22 | – | –

Results, then the molecule that gave them:

Ki [1] [µM] | Ki [2] [µM] | Ki [3] [µM] | Ki (Assay 4, mean ± SD (n = 3), read-out: Ki ± SD, Assay 4) [µM] | SMILES
0.57 ± 0.052 | 0.7 ± 0.06 | – | – | Cc1ccc(CCc2c(-c3csc4ccccc34)n(CCc3nn[nH]n3)c3ccc(C(=O)O)cc23)cc1 [Compound 79, 1-(2-(2H-tetrazol-5-yl)ethyl)-2-(benzo[b]thiophen-3-yl)-3-(4-methylphenethyl)-1H-indole-5-carboxylic acid]
1.3 ± 0.4 | 1.2 ± 0.23 | – | – | O=C(O)c1ccc2c(c1)c(CCC1CCOCC1)c(-c1ccsc1)n2CCc1nn[nH]n1 [Compound 86, 1-(2-(2H-tetrazol-5-yl)ethyl)-3-(2-(tetrahydro-2H-pyran-4-yl)ethyl)-2-(thiophen-3-yl)-1H-indole-5-carboxylic acid]
20 ± 1.1 | – | – | – | Cc1ccc(CCc2c(-c3ccncc3)n(CCc3nn[nH]n3)c3ccc(C(=O)O)cc23)cc1 [Compound 83, 1-(2-(2H-tetrazol-5-yl)ethyl)-3-(4-methylphenethyl)-2-(pyridin-4-yl)-1H-indole-5-carboxylic acid]
> 24 | – | – | – | CNC(=O)c1ccc2c(c1)c(CCc1ccc(C)cc1)c(-c1ccsc1)n2CCc1nn[nH]n1 [Compound 89, 1-(2-(2H-tetrazol-5-yl)ethyl)-N-methyl-3-(4-methylphenethyl)-2-(thiophen-3-yl)-1H-indole-5-carboxamide]
0.81 ± 0.052 | 8.2 ± 0.19 | 0.52 ± 0.048 | – | O=C(O)c1ccc2c(c1)c(CCC1CCCCC1)c(-c1ccsc1)n2CCc1nn[nH]n1 [Compound 85, 1-(2-(2H-tetrazol-5-yl)ethyl)-3-(2-cyclohexylethyl)-2-(thiophen-3-yl)-1H-indole-5-carboxylic acid]
8.4 ± 0.58 | 30 ± 1.9 | – | – | Cc1ccc(CCc2c(-c3cccnc3)n(CCc3nn[nH]n3)c3ccc(C(=O)O)cc23)cc1 [Compound 82, 1-(2-(2H-tetrazol-5-yl)ethyl)-3-(4-methylphenethyl)-2-(pyridin-3-yl)-1H-indole-5-carboxylic acid]
3.4 ± 0.86 | 1.3 ± 0.066 | – | – | O=C(O)c1ccc2c(c1)c(CCc1ccc3c(c1)OCCO3)c(-c1ccsc1)n2CCc1nn[nH]n1 [Compound 87, 1-(2-(2H-tetrazol-5-yl)ethyl)-3-(2-(2,3-dihydrobenzo[b][1,4]dioxin-6-yl)ethyl)-2-(thiophen-3-yl)-1H-indole-5-carboxylic acid]
